Measured values taken from PubChem BioAssay AID1963973 (Molecular Pharmacology Branch, DTP, NCI, 2024).
One block for each molecule: values may come before it.

Test system: 883617-216-R-J1-PDC tumor spheroids, viability
Experiment: Anticancer human tumor 883617-216-R-J1-PDC patient-derived bladder carcinoma cell line growth inhibition [PI3K]
Conditions: spheroids with HUVEC and MSC; for viability, T/C: stronger effect = lower value
Outline: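 Three cell types, namely tumor cells, endothelial cells and mesenchymal stem cells, formed each spheroid. Combinations with four PI3K inhibitors were screened at clinically achievable concentrations decreasing by half-log, and spheroid viability was recorded.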

[1] = curve of first compound, second compound 0.0316 µM
[2] = curve of first compound, second compound 0.1 µM
[3] = curve of first compound, second compound 0.316 µM
[4] = curve of first compound, second compound 1 µM
[5] = curve of first compound, second compound 3.16 µM
[6] = curve of first compound, second compound 10 µM
[7] = second compound 0.0316 µM, first compound 0.0316 µM
[8] = second compound 0.0316 µM, first compound 0.1 µM
[9] = second compound 0.0316 µM, first compound 0.316 µM
[10] = second compound 0.0316 µM, first compound 1 µM
[11] = second compound 0.0316 µM, first compound 3.16 µM
[12] = second compound 0.0316 µM, first compound 10 µM
[13] = second compound 0.1 µM, first compound 0.0316 µM
[14] = second compound 0.1 µM, first compound 0.1 µM
[15] = second compound 0.1 µM, first compound 0.316 µM
[16] = second compound 0.1 µM, first compound 1 µM
[17] = second compound 0.1 µM, first compound 3.16 µM
[18] = second compound 0.1 µM, first compound 10 µM
[19] = second compound 0.316 µM, first compound 0.0316 µM
[20] = second compound 0.316 µM, first compound 0.1 µM
[21] = second compound 0.316 µM, first compound 0.316 µM
[22] = second compound 0.316 µM, first compound 1 µM
[23] = second compound 0.316 µM, first compound 3.16 µM
[24] = second compound 0.316 µM, first compound 10 µM
[25] = second compound 1 µM, first compound 0.0316 µM
[26] = second compound 1 µM, first compound 0.1 µM
[27] = second compound 1 µM, first compound 0.316 µM
[28] = second compound 1 µM, first compound 1 µM
[29] = second compound 1 µM, first compound 3.16 µM
[30] = second compound 1 µM, first compound 10 µM
[31] = second compound 3.16 µM, first compound 0.0316 µM
[32] = second compound 3.16 µM, first compound 0.1 µM
[33] = second compound 3.16 µM, first compound 0.316 µM
[34] = second compound 3.16 µM, first compound 1 µM
[35] = second compound 3.16 µM, first compound 3.16 µM
[36] = second compound 3.16 µM, first compound 10 µM
[37] = second compound 10 µM, first compound 0.0316 µM
[38] = second compound 10 µM, first compound 0.1 µM
[39] = second compound 10 µM, first compound 0.316 µM
[40] = second compound 10 µM, first compound 1 µM
[41] = second compound 10 µM, first compound 3.16 µM
[42] = second compound 10 µM, first compound 10 µM
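Also: spheroids exposed to agents for 7 days before the viability read.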

SMILES: CC(Cn1ccc(-c2ccc(C#N)c(Cl)c2)n1)NC(=O)c1cc(C(C)O)[nH]n1 (stereo not given) + CC(Nc1ncnc2nc[nH]c12)c1cc2cccc(Cl)c2c(=O)n1-c1ccccc1
IC50 [1]: > 10000 nM
IC50 [2]: > 10000 nM
IC50 [3]: > 10000 nM
IC50 [4]: > 10000 nM
IC50 [5]: > 10000 nM
IC50 [6]: < 31.6 nM
viability, T/C [7]: 98.1%
viability, T/C [8]: 104%
viability, T/C [9]: 90.5%
viability, T/C [10]: 103%
viability, T/C [11]: 103%
viability, T/C [12]: 95.3%
viability, T/C [13]: 94.5%
viability, T/C [14]: 84.7%
viability, T/C [15]: 84.6%
viability, T/C [16]: 100%
viability, T/C [17]: 95.3%
viability, T/C [18]: 97%
viability, T/C [19]: 95.8%
viability, T/C [20]: 92.9%
viability, T/C [21]: 90.7%
viability, T/C [22]: 97.9%
viability, T/C [23]: 95.5%
viability, T/C [24]: 90.7%
viability, T/C [25]: 78.3%
viability, T/C [26]: 77.1%
viability, T/C [27]: 78.3%
viability, T/C [28]: 86.9%
viability, T/C [29]: 90.8%
viability, T/C [30]: 76.8%
viability, T/C [31]: 76.7%
viability, T/C [32]: 70.9%
viability, T/C [33]: 61.2%
viability, T/C [34]: 61%
viability, T/C [35]: 68.1%
viability, T/C [36]: 74.2%
viability, T/C [37]: 52.9%
viability, T/C [38]: 43.1%
viability, T/C [39]: 44.6%
viability, T/C [40]: 51.4%
viability, T/C [41]: 43.7%
viability, T/C [42]: 50%

SMILES: CC1(C)CCC(Nc2ncc(C(F)(F)F)c(-c3c[nH]c4c(P(C)(C)=O)c(C#N)ccc34)n2)CN1 (stereo not given) + CC(Nc1ncnc2nc[nH]c12)c1cc2cccc(Cl)c2c(=O)n1-c1ccccc1
IC50 [1]: < 31.6 nM
IC50 [2]: < 31.6 nM
IC50 [3]: < 31.6 nM
IC50 [4]: < 31.6 nM
IC50 [5]: < 31.6 nM
IC50 [6]: < 31.6 nM
viability, T/C [7]: 37.5%
viability, T/C [8]: 37.6%
viability, T/C [9]: 36.1%
viability, T/C [10]: 31.7%
viability, T/C [11]: 14.5%
viability, T/C [12]: 0.45%
viability, T/C [13]: 36.2%
viability, T/C [14]: 30.1%
viability, T/C [15]: 32.6%
viability, T/C [16]: 30.9%
viability, T/C [17]: 13.9%
viability, T/C [18]: 1.12%
viability, T/C [19]: 33.4%
viability, T/C [20]: 35.1%
viability, T/C [21]: 31.1%
viability, T/C [22]: 26.5%
viability, T/C [23]: 13.9%
viability, T/C [24]: 1.62%
viability, T/C [25]: 33.6%
viability, T/C [26]: 33.7%
viability, T/C [27]: 28.8%
viability, T/C [28]: 28.1%
viability, T/C [29]: 11.7%
viability, T/C [30]: 0.54%
viability, T/C [31]: 29.7%
viability, T/C [32]: 27.3%
viability, T/C [33]: 28.8%
viability, T/C [34]: 24.7%
viability, T/C [35]: 15%
viability, T/C [36]: 1.34%
viability, T/C [37]: 25.7%
viability, T/C [38]: 20.8%
viability, T/C [39]: 21.8%
viability, T/C [40]: 20.9%
viability, T/C [41]: 19.2%
viability, T/C [42]: 0.84%

The next lines start with results.

IC50 [1]: > 10000 nM
IC50 [2]: > 10000 nM
IC50 [3]: > 10000 nM
IC50 [4]: > 10000 nM
IC50 [5]: > 10000 nM
IC50 [6]: < 31.6 nM
SMILES: C[C@@H](NC(=O)c1ncnc(N)c1Cl)c1ncc(C(=O)Nc2cc(C(F)(F)F)c(Cl)cn2)s1 + CC(Nc1ncnc2nc[nH]c12)c1cc2cccc(Cl)c2c(=O)n1-c1ccccc1
viability, T/C [7]: 88.8%
viability, T/C [8]: 87.1%
viability, T/C [9]: 81.4%
viability, T/C [10]: 99.8%
viability, T/C [11]: 78.1%
viability, T/C [12]: 64.8%
viability, T/C [13]: 90%
viability, T/C [14]: 85.6%
viability, T/C [15]: 91.3%
viability, T/C [16]: 91.8%
viability, T/C [17]: 81.2%
viability, T/C [18]: 58.2%
viability, T/C [19]: 85.5%
viability, T/C [20]: 96.2%
viability, T/C [21]: 90.3%
viability, T/C [22]: 74%
viability, T/C [23]: 78.4%
viability, T/C [24]: 76.2%
viability, T/C [25]: 80.3%
viability, T/C [26]: 82.1%
viability, T/C [27]: 90.4%
viability, T/C [28]: 74.4%
viability, T/C [29]: 75.8%
viability, T/C [30]: 50.1%
viability, T/C [31]: 58.3%
viability, T/C [32]: 56.5%
viability, T/C [33]: 60%
viability, T/C [34]: 58.2%
viability, T/C [35]: 65.2%
viability, T/C [36]: 51.7%
viability, T/C [37]: 36.9%
viability, T/C [38]: 43.9%
viability, T/C [39]: 45.8%
viability, T/C [40]: 44.6%
viability, T/C [41]: 55.7%
viability, T/C [42]: 40.4%

IC50 [1]: > 10000 nM
IC50 [2]: > 10000 nM
IC50 [3]: < 31.6 nM
IC50 [4]: 73.9 nM
IC50 [5]: < 31.6 nM
IC50 [6]: < 31.6 nM
SMILES: C=CC(=O)N1CCN(c2nc(=O)n(-c3c(C)ccnc3C(C)C)c3nc(-c4c(O)cccc4F)c(F)cc23)C(C)C1 (stereo not given) + CC(Nc1ncnc2nc[nH]c12)c1cc2cccc(Cl)c2c(=O)n1-c1ccccc1
viability, T/C [7]: 59.4%
viability, T/C [8]: 41.1%
viability, T/C [9]: 49.5%
viability, T/C [10]: 55.3%
viability, T/C [11]: 59.9%
viability, T/C [12]: 64.2%
viability, T/C [13]: 60.9%
viability, T/C [14]: 46.9%
viability, T/C [15]: 48.4%
viability, T/C [16]: 57.9%
viability, T/C [17]: 63.4%
viability, T/C [18]: 62%
viability, T/C [19]: 55.9%
viability, T/C [20]: 43.4%
viability, T/C [21]: 40.8%
viability, T/C [22]: 59.1%
viability, T/C [23]: 48.7%
viability, T/C [24]: 54.8%
viability, T/C [25]: 63.3%
viability, T/C [26]: 45.2%
viability, T/C [27]: 43%
viability, T/C [28]: 45.7%
viability, T/C [29]: 37.1%
viability, T/C [30]: 45.6%
viability, T/C [31]: 43.2%
viability, T/C [32]: 36.2%
viability, T/C [33]: 27.2%
viability, T/C [34]: 37.5%
viability, T/C [35]: 37.6%
viability, T/C [36]: 45.4%
viability, T/C [37]: 26.1%
viability, T/C [38]: 20.1%
viability, T/C [39]: 19.6%
viability, T/C [40]: 21.9%
viability, T/C [41]: 28.8%
viability, T/C [42]: 31.7%

IC50 (curve of compound): < 31.6 nM
SMILES: CC1(C)CCC(Nc2ncc(C(F)(F)F)c(-c3c[nH]c4c(P(C)(C)=O)c(C#N)ccc34)n2)CN1 (stereo not given)
viability, T/C (compound 0.0316 µM): 38% [middle of 4 runs]
viability, T/C (compound 0.1 µM): 31.7% [middle of 4 runs]
viability, T/C (compound 0.316 µM): 28.7% [middle of 4 runs]
viability, T/C (compound 1 µM): 30% [middle of 4 runs]
viability, T/C (compound 3.16 µM): 16.9% [middle of 4 runs]
viability, T/C (compound 10 µM): 0.37% [middle of 4 runs]
